Measured values taken from paper PMC9666555, “Genuine selective caspase-2 inhibition with new irreversible small peptidomimetics” (Cell Death & Disease, 2022).
Where “and” joins values, the source holds several entries; their conditions need not be identical. Equal entries are not always repeated. Non-standard residues stand in square brackets, D forms with d. Residues, ends and D or L forms follow the SMILES beside them. ξ: configuration not given here. *: point of attachment. ξTHIQ1CO(6-Me) = Cc1ccc2c(c1)CCNC2C(=O)O; X1 = O=C(O)CC(N*)C(=O)COc1c(F)cccc1F; Quinaldoyl = O=C(c1ccc2ccccc2n1)*

How the values were obtained:
recombinant human Casp3 = biological target: T1, recombinant human Casp3 (Homo sapiens, UniProt P42574); experiment: Enzyme mechanistic studies (Ki, k3, k3/KI), Caspase-3; assay type: biochemical; settings: irreversible inhibitors, progress curve method
T1 sequence (P42574 29-175 limits assumed): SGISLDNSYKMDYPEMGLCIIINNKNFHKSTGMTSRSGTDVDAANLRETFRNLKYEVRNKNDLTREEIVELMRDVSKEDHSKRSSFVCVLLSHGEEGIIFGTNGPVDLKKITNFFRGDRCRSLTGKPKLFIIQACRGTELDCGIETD
T1 sequence (P42574 176-277 limits assumed): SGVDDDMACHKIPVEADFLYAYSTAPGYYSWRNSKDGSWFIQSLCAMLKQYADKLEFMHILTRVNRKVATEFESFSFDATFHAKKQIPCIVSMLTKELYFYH
Experimental: (§1) For reversible inhibitors, the mechanisms of inhibition were determined by varying substrate and inhibitor concentrations and using Lineweaver−Burk representations to determine the inhibition constants Ki of competitive inhibitors (Ki = [E][I]/[EI]). For suicide inhibitors, inactivation can be represented by the minimum kinetic scheme (Eq. 2), where E and I are the free forms of enzyme and inhibitor, E * I a kinetic chimera of the Michaelis complex and E − I the covalent complex (inactivated enzyme).2 E+I⇄KIE*I→k3E−I
(§2) KI and k3 are the kinetic constants characterizing the inactivation process and the k3/KI ratio is an index of the inhibitory potency. The first-order rate constant, k3, and the apparent dissociation constant, KI, were determined for Caspase-2 and -3 using the progress curve method. Briefly, the enzyme activities were measured continuously for 120 min. To determine the kinetic parameters, progress curves were obtained at several inhibition concentrations using fixed substrate concentration. The product released for each inhibitor concentration was plotted versus the time following Eq. 3 where the constant π depended on [I]’, a modified inhibitor concentration due to substrate competition, according to Eq. 4. [I]’ is defined by Eq. 5, where KM was Michaelis constant for the enzymatic hydrolysis of the appropriate fluorogenic substrate. The ratio k3/KI was obtained by fitting the experimental data to the equations (F.U., fluorescence unit):3 F.U.=∫0tvidt+F.U0−vo×e^−π×t/π+F.U.0 4 π=k3×[I]^′/KI+[I]^′ 5 [I]^′=[I]/1+S/KM
Linear and nonlinear regression fits of the experimental data to the equations were performed with KaleidaGraph software.

recombinant human Casp2 = biological target: T2, recombinant human Casp2 (Homo sapiens, UniProt P42575); experiment: Enzyme mechanistic studies (Ki, k3, k3/KI), Caspase-2; assay type: biochemical
T2 sequence (P42575 170-325 limits assumed): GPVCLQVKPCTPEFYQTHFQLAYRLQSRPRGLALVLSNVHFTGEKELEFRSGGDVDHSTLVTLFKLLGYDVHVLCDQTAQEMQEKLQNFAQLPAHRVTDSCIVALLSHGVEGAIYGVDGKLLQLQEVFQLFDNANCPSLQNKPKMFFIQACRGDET
T2 sequence (P42575 348-452 limits assumed): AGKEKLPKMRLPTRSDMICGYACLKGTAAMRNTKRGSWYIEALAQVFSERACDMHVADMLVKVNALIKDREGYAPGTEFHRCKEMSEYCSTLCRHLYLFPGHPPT
Experimental: as §1, §2
Linear and nonlinear regression fits of the experimental data to the equations were performed with KaleidaGraph software. The experimental conditions were [Caspase-2]0 = 0.2 nM, [Ac-VDVAD-AMC]0 = 25 µM and [Caspase-3]0 = 0.1 nM, [Ac-DEVD-AMC]0 = 10 µM; [I]0 = 0–100 µM.

[1] = tested on: cell lines or primary neurons in culture; experiment: Toxicity of inhibitor added to cultured cells; assay type: cell-based; settings: at least up to 100 µM; not shown
[2] = irreversible inhibitors, progress curve method

SMILES	Casp3 k3 (recombinant human Casp3)	Casp3 k3/KI (recombinant human Casp3)	KI (inactivation) (recombinant human Casp3)	selectivity: inactivation rate (k3/Ki) on Casp2 as compared to Casp3 (recombinant human Casp2)	Casp2 k3 (recombinant human Casp2; [2])	Casp2 k3/KI (recombinant human Casp2; [2])	KI (inactivation) (recombinant human Casp2; [2])	toxicity [1]	Ki (recombinant human Casp3; read-out: Casp3 KI)	Ki (recombinant human Casp2; irreversible inhibitors, progress curve method, read-out: Casp2 KI)
Cc1ccc2c(c1)CCN(C(=O)[C@@H](NC(=O)[C@H](CC(=O)O)NC(=O)[C@@H](NC(=O)c1ccc3ccccc3n1)C(C)C)C(C)C)C2C(=O)NC(CC(=O)O)C(=O)COc1c(F)cccc1F (stereo partly drawn) [LJ2, Quinolin-2-carbonyl-VDV-(methyl-isoquinolyl)-D-CH2-O(2,6F2)Ph] (Quinaldoyl-VDV[ξTHIQ1CO(6-Me)]-X1)	2,37 ms^−1	51,992 M^−1 s^−1 and 51 992 M^−1 s^−1	0.047 µM	25 times and ~ 25 times	4,91 ms^−1	~ 1,322,875 M^−1 s^−1 and 1 322 875 M^−1 s^−1 and ~ 1,300,000 M^−1 s^−1	0.00368 µM	devoid of any toxicity	–	–
CC(C)[C@H](NC(=O)c1ccc2ccccc2n1)C(=O)N[C@@H](CC(=O)O)C(=O)N[C@H](C(=O)N1CC[C@H](CC(C)(C)C)[C@@H]1C(=O)NC(CC(=O)O)C(=O)COc1c(F)cccc1F)C(C)C (stereo partly drawn) [LJ3a]	0.7 ± 9 × 10^−5 ms^−1	1807 M⁻¹ s⁻¹	–	~1000 times and 946 times	5 ± 7 × 10^−4 ms^−1	1,708,996 M^−1 s^−1	–	–	0.4 ± 0.0933 µM	0.0028 ± 0.0008 µM
